Results taken from ChEMBL document CHEMBL1201862, “PubChem BioAssay data set” (2004).
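Briefly, cells in 96-well plates were exposed to five compound concentrations for 48 h, and endpoints were estimated by linear interpolation. Here, GI50 denotes the concentration required for 50% inhibition of growth.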 Active and inactive are the calls of the source. Cut-off read from the data, not from the text of the source: active = GI50 up to about 1.1 µM and inactive = higher.

Key:
Assay in all cases: NCI anticancer screen, dose series, 48 h
[1] = system: LOX IMVI
[2] = system: CAKI-1
[3] = system: HOP-92
[4] = system: EKVX
[5] = system: KM12
[6] = system: SK-MEL-5
[7] = system: TK-10
[8] = system: SF-268
[9] = system: 786-0
[10] = system: SN12C
[11] = system: HCT-116
[12] = system: OVCAR-3
[13] = system: K562
[14] = system: PC-3
[15] = system: SNB-75
[16] = system: RXF 393
[17] = system: OVCAR-5
[18] = system: SF-295
[19] = system: Malme-3M
[20] = system: SR
[21] = system: RPMI-8226
[22] = system: Hs-578T
[23] = system: MCF7
[24] = system: UO-31
[25] = system: A498
[26] = system: OVCAR-4
[27] = system: MOLT-4
[28] = system: IGROV-1
[29] = system: SNB-19
[30] = system: ACHN
[31] = system: UACC-62
[32] = system: HL-60
[33] = system: U-251
[34] = system: HCT-15
[35] = system: MDA-N
[36] = system: SK-MEL-28
[37] = system: DU-145
[38] = system: M14
[39] = system: MDA-MB-435
[40] = system: OVCAR-8
[41] = system: UACC-257
[42] = system: SF-539
[43] = system: A549
[44] = system: T47D
[45] = system: CCRF-CEM
[46] = system: COLO 205
[47] = system: NCI-H522
[48] = system: BT-549
[49] = system: NCI/ADR-RES
[50] = system: SW-620
[51] = system: HCC 2998
[52] = system: NCI-H460
[53] = system: MDA-MB-231
[54] = system: SK-MEL-2
[55] = system: NCI-H226
[56] = system: HOP-62
[57] = system: SK-OV-3
[58] = system: NCI-H23
[59] = system: HT-29

## Cc1cc(S(=O)(=O)NC2=NCc3nc4ccccc4n32)c(S)cc1Cl
[1]
  GI50: 18.4 µM (inactive)
[2]
  GI50: 35.2 µM (inactive)
[3]
  GI50: 18.7 µM (inactive)
[4]
  GI50: 29.3 µM (inactive)
[5]
  GI50: 21.2 µM (inactive)
[6]
  GI50: 16.9 µM (inactive)
[7]
  GI50: 38.8 µM (inactive)
[8]
  GI50: 32 µM (inactive)
[9]
  GI50: 21 µM (inactive)
[10]
  GI50: 23.5 µM (inactive)
[11]
  GI50: 18.3 µM (inactive)
[12]
  GI50: 19.9 µM (inactive)
[13]
  GI50: 42.9 µM (inactive)
[14]
  GI50: 22.2 µM (inactive)
[15]
  GI50: 24.2 µM (inactive)
[16]
  GI50: 12.9 µM (inactive)
[17]
  GI50: 20.7 µM (inactive)
[18]
  GI50: 19.9 µM (inactive)
[19]
  GI50: 22.5 µM (inactive)
[20]
  GI50: 20.9 µM (inactive)
[21]
  GI50: 20.3 µM (inactive)
[22]
  GI50: 21.4 µM (inactive)
[23]
  GI50: 30.3 µM (inactive)
[24]
  GI50: 26.4 µM (inactive)
[25]
  GI50: 26.9 µM (inactive)
[26]
  GI50: 29.4 µM (inactive)
[27]
  GI50: 19.6 µM (inactive)
[28]
  GI50: 24.8 µM (inactive)
[29]
  GI50: 32.3 µM (inactive)
[30]
  GI50: 32.4 µM (inactive)
[31]
  GI50: 17.1 µM (inactive)
[32]
  GI50: 24.2 µM (inactive)
[33]
  GI50: 33.5 µM (inactive)
[34]
  GI50: 24.7 µM
[35]
  GI50: 26 µM (inactive)
[36]
  GI50: 30.5 µM (inactive)
[37]
  GI50: 31.2 µM (inactive)
[38]
  GI50: 23.7 µM (inactive)
[39]
  GI50: 28.8 µM (inactive)
[40]
  GI50: 28.1 µM (inactive)
[41]
  GI50: 24.2 µM (inactive)
[42]
  GI50: 20.7 µM (inactive)
[43]
  GI50: 25.8 µM (inactive)
[44]
  GI50: 21.9 µM (inactive)
[45]
  GI50: 31.6 µM (inactive)
[46]
  GI50: 19.4 µM (inactive)
[47]
  GI50: 34.9 µM (inactive)
[48]
  GI50: 23 µM (inactive)
[49]
  GI50: 19.6 µM (inactive)
[50]
  GI50: 47.6 µM (inactive)
[51]
  GI50: 17.2 µM (inactive)
[52]
  GI50: 27.7 µM (inactive)
[53]
  GI50: 23.5 µM (inactive)
[54]
  GI50: 13.5 µM (inactive)
[55]
  GI50: 20 µM (inactive)

## NNC(=O)CCC(NS(=O)(=O)c1ccc(Cl)cc1)C(=O)NN (stereo not drawn)
[1]
  GI50: > 100 µM (inactive)
[2]
  GI50: > 100 µM (inactive)
[3]
  GI50: > 100 µM (inactive)
[4]
  GI50: > 100 µM (inactive)
[5]
  GI50: > 100 µM (inactive)
[6]
  GI50: > 100 µM (inactive)
[7]
  GI50: > 100 µM (inactive)
[56]
  GI50: > 100 µM (inactive)
[8]
  GI50: > 100 µM (inactive)
[9]
  GI50: > 100 µM (inactive)
[10]
  GI50: > 100 µM (inactive)
[11]
  GI50: > 100 µM (inactive)
[12]
  GI50: > 100 µM (inactive)
[13]
  GI50: > 100 µM (inactive)
[14]
  GI50: > 100 µM (inactive)
[15]
  GI50: > 100 µM (inactive)
[16]
  GI50: > 100 µM (inactive)
[17]
  GI50: > 100 µM (inactive)
[18]
  GI50: > 100 µM (inactive)
[19]
  GI50: > 100 µM (inactive)
[20]
  GI50: > 100 µM (inactive)
[22]
  GI50: > 100 µM (inactive)
[23]
  GI50: > 100 µM (inactive)
[24]
  GI50: > 100 µM (inactive)
[25]
  GI50: > 100 µM (inactive)
[26]
  GI50: > 100 µM (inactive)
[27]
  GI50: > 100 µM (inactive)
[28]
  GI50: > 100 µM (inactive)
[29]
  GI50: > 100 µM (inactive)
[30]
  GI50: > 100 µM (inactive)
[31]
  GI50: > 100 µM (inactive)
[32]
  GI50: > 100 µM (inactive)
[33]
  GI50: > 100 µM (inactive)
[57]
  GI50: > 100 µM (inactive)
[34]
  GI50: > 100 µM
[58]
  GI50: > 100 µM (inactive)
[35]
  GI50: > 100 µM (inactive)
[36]
  GI50: > 100 µM (inactive)
[37]
  GI50: > 100 µM (inactive)
[38]
  GI50: > 100 µM (inactive)
[39]
  GI50: > 100 µM (inactive)
[40]
  GI50: > 100 µM (inactive)
[41]
  GI50: > 100 µM (inactive)
[42]
  GI50: > 100 µM (inactive)
[43]
  GI50: > 100 µM (inactive)
[44]
  GI50: > 100 µM (inactive)
[45]
  GI50: > 100 µM (inactive)
[46]
  GI50: > 100 µM (inactive)
[47]
  GI50: > 100 µM (inactive)
[48]
  GI50: > 100 µM (inactive)
[49]
  GI50: > 100 µM (inactive)
[50]
  GI50: > 100 µM (inactive)
[51]
  GI50: > 100 µM (inactive)
[59]
  GI50: > 100 µM (inactive)
[52]
  GI50: > 100 µM (inactive)
[53]
  GI50: > 100 µM (inactive)
[54]
  GI50: > 100 µM (inactive)
[55]
  GI50: > 100 µM (inactive)
